Legend:
barnyardgrass [1] = experiment: Test A preemergence; format: in vivo, Echinochloa crus-galli; settings: preemergence; for Barnyardgrass plant response rating (0 to 100 scale, 0 is no effect, 100 is complete control): visual injury approx. 10 days after treatment
Procedure, shortened: (§1)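 Visual injury ratings, 0 = no effect to 100 = complete control, taken about 10 days after treatment against untreated controls. Test chemicals, in a non-phytotoxic surfactant-containing solvent, were sprayed onto soil preemergence or onto one- to two-leaf plants (2–10 cm) postemergence, in loam–sand soil under greenhouse conditions.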

kochia [2] = experiment: Test A preemergence; format: in vivo, Kochia scoparia; settings: for Kochia plant response rating (0 to 100 scale): visual injury approx. 10 days after treatment
Excerpt: (§2) Seeds of plant species selected from barnyardgrass (Echinochloa crus-galli), kochia (Kochia scoparia), common ragweed (Ambrosia elation), Italian ryegrass (Lolium multiflorum), crabgrass, large (large crabgrass, Digitaria sanguinalis), foxtail, giant (giant foxtail, Setaria faberii), morningglory (Ipomoea spp.), pigweed (redroot pigweed, Amaranthus retroflexus), velvetleaf (Abutilon theophrasti), wheat (Triticum aestivum), and corn (Zea mays) were planted into a blend of loam soil and sand and treated preemergence with a directed soil spray using test chemicals formulated in a non-phytotoxic solvent mixture which included a surfactant.
(§3) At the same time, plants selected from these crop and weed species and also blackgrass (Alopecurus myosuroides), and galium (catchweed bedstraw, Galium aparine) were planted in pots containing the same blend of loam soil and sand and treated with postemergence applications of test chemicals formulated in the same manner. Plants ranged in height from 2 to 10 cm and were in the one- to two-leaf stage for the postemergence treatment. Treated plants and untreated controls were maintained in a greenhouse for approximately 10 days, after which time all treated plants were compared to untreated controls and visually evaluated for injury. Plant response ratings, summarized in Table A, are based on a 0 to 100 scale where 0 is no effect and 100 is complete control. A dash (-) response means no test result.

common ragweed [3] = experiment: Test A preemergence; format: in vivo, Ambrosia elation; settings: for Common Ragweed plant response rating (0 to 100 scale): visual injury approx. 10 days after treatment
Excerpt: as §2, §3

Italian ryegrass [4] = experiment: Test A preemergence; format: in vivo, Lolium multiflorum; settings: for Italian Ryegrass plant response rating (0 to 100 scale): visual injury approx. 10 days after treatment
Excerpt: as §2, §3

foxtail, giant [5] = experiment: Test A preemergence; format: in vivo, Setaria faberii; settings: preemergence; for Foxtail, Giant plant response rating (0 to 100 scale): visual injury approx. 10 days after treatment
Procedure, shortened: as §1

pigweed [6] = experiment: Test A preemergence; format: in vivo, Amaranthus retroflexus; settings: preemergence; for Pigweed plant response rating (0 to 100 scale): visual injury approx. 10 days after treatment
Procedure, shortened: as §1

barnyardgrass [7] = experiment: Test A postemergence; format: in vivo, Echinochloa crus-galli
Procedure, shortened: as §1

kochia [8] = experiment: Test A postemergence; format: in vivo, Kochia scoparia
Excerpt: as §2, §3

common ragweed [9] = experiment: Test A postemergence; format: in vivo, Ambrosia elation
Excerpt: as §2, §3

Italian ryegrass [10] = experiment: Test A postemergence; format: in vivo, Lolium multiflorum
Excerpt: as §2, §3

foxtail, giant [11] = experiment: Test A postemergence; format: in vivo, Setaria faberii
Procedure, shortened: as §1

pigweed [12] = experiment: Test A postemergence; format: in vivo, Amaranthus retroflexus
Procedure, shortened: as §1

wheat = experiment: Test A postemergence; format: in vivo, Triticum aestivum
Procedure, shortened: as §1

corn = experiment: Test A postemergence; format: in vivo, Zea mays
Procedure, shortened: as §1

blackgrass = experiment: Test A postemergence; format: in vivo, Alopecurus myosuroides
Excerpt: as §2, §3

galium = experiment: Test A postemergence; format: in vivo, Galium aparine
Excerpt: as §2, §3

rice = experiment: Test B flood; format: in vivo, Oryza sativa; settings: 250 g ai/ha, visual rating on 0 to 100 scale (0 no effect, 100 complete control), 13 to 15 days
Procedure, shortened: (§4)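 2-leaf plants; pots flooded 3 cm over soil; compound added to paddy water, depth kept constant. Greenhouse 13–15 d. Visual rating vs controls, 0–100 scale (100 = complete control); dash = no result.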

sedge, umbrella = experiment: Test B flood; format: in vivo, Cyperus difformis; settings: 250 g ai/ha, visual rating on 0 to 100 scale (0 no effect, 100 complete control), 13 to 15 days
Procedure, shortened: as §4

ducksalad = experiment: Test B flood; format: in vivo, Heteranthera limosa; settings: 250 g ai/ha, visual rating on 0 to 100 scale (0 no effect, 100 complete control), 13 to 15 days
Procedure, shortened: as §4

barnyardgrass [13] = experiment: Test B flood; format: in vivo, Echinochloa crus-galli; settings: 250 g ai/ha, visual rating on 0 to 100 scale (0 no effect, 100 complete control), 13 to 15 days
Procedure, shortened: as §4

[14] = 500 g ai/ha, visual injury after approx. 10 days, 0 to 100 scale (0 no effect, 100 complete control)
[15] = Postemergence, 125 g ai/ha, 0 to 100 scale, 0 no effect, 100 complete control
[16] = Postemergence, 500 g ai/ha, 0 to 100 scale (0 no effect, 100 complete control)
[17] = postemergence, 125 g ai/ha, about 10 days, visual rating on 0 to 100 scale (0 no effect, 100 complete control)
[18] = 125 g ai/ha, visual injury, 0 to 100 scale, approx. 10 days

Compound	Barnyardgrass plant response rating (0 to 100 scale, 0 is no effect, 100 is complete control) (barnyardgrass [1]; 125 g ai/ha)	Barnyardgrass plant response rating (barnyardgrass [1]; [14])	Kochia plant response rating (0 to 100 scale) (kochia [2]; 125 g ai/ha)	Common Ragweed plant response rating (common ragweed [3]; [14])	Italian Ryegrass plant response rating (Italian ryegrass [4]; [14])	Foxtail, Giant plant response rating (foxtail, giant [5]; [14])	Barnyardgrass plant response rating (barnyardgrass [7]; [16])	Kochia plant response rating (kochia [8]; [16])	Common Ragweed plant response rating (common ragweed [9]; [16])	Italian Ryegrass plant response rating (Italian ryegrass [10]; [16])	Foxtail, Giant plant response rating (foxtail, giant [11]; [16])	Pigweed plant response rating (pigweed [12]; [16])	Wheat plant response rating (wheat; [16])	Corn plant response rating (corn; [16])	Blackgrass plant response rating (blackgrass; [16])	Galium plant response rating (galium; [16])	Plant response rating, Rice (rice)	Plant response rating, Sedge, Umbrella (sedge, umbrella)	Plant response rating, Ducksalad (ducksalad)	Plant response rating, Barnyardgrass (barnyardgrass [13])	also measured
CCc1cc(C(=O)NCC(F)(F)F)nn1Cc1cc(C(F)(F)F)nn1C(C)C [Compound 213]	0	0	0	0	0	0	0	0	0	0	0	0	0	0	0	0	0	0	0	0	Common Ragweed plant response rating (0 to 100 scale) (common ragweed [3]; 125 g ai/ha): 0; Italian Ryegrass plant response rating (0 to 100 scale) (Italian ryegrass [4]; 125 g ai/ha): 0; Foxtail, Giant plant response rating (0 to 100 scale) (foxtail, giant [5]; 125 g ai/ha): 0; Pigweed plant response rating (0 to 100 scale) (pigweed [6]; 125 g ai/ha): 0; Barnyardgrass plant response rating (barnyardgrass [7]; [15]): 0; Kochia plant response rating (kochia [8]; [15]): 0; Common Ragweed plant response rating (common ragweed [9]; [15]): 0; Italian Ryegrass plant response rating (Italian ryegrass [10]; [15]): 0; Foxtail, Giant plant response rating (foxtail, giant [11]; [15]): 0; Pigweed plant response rating (pigweed [12]; [15]): 0; Wheat plant response rating (wheat; [15]): 0; Corn plant response rating (corn; [15]): 0; Blackgrass plant response rating (blackgrass; [15]): 0; Galium plant response rating (galium; [15]): 0
CCONC(=O)c1cc(CC)n(Cc2cc(OC(F)F)nn2C)n1 [Compound 207]	0	90	30	40	20	20	80	60	30	50	60	100	20	60	60	80	0	0	0	0	Common Ragweed plant response rating (0 to 100 scale) (common ragweed [3]; 125 g ai/ha): 0; Italian Ryegrass plant response rating (0 to 100 scale) (Italian ryegrass [4]; 125 g ai/ha): 0; Foxtail, Giant plant response rating (0 to 100 scale) (foxtail, giant [5]; 125 g ai/ha): 0; Pigweed plant response rating (0 to 100 scale) (pigweed [6]; 125 g ai/ha): 50; Barnyardgrass plant response rating (barnyardgrass [7]; [17]): 0; Kochia plant response rating (kochia [8]; [15]): 30; Common Ragweed plant response rating (common ragweed [9]; [17]): 0; Italian Ryegrass plant response rating (Italian ryegrass [10]; [15]): 0; Foxtail, Giant plant response rating (foxtail, giant [11]; [17]): 0; Pigweed plant response rating (pigweed [12]; [15]): 60; Wheat plant response rating (wheat; [15]): 10; Corn plant response rating (corn; [17]): 30; Blackgrass plant response rating (blackgrass; [17]): 0; Galium plant response rating (galium; [15]): 40
CCONC(=O)c1cc(CC)n(Cc2cc(C(F)(F)F)nn2C(C)C)n1 [Compound 208]	0	10	10	10	10	30	10	50	20	0	10	80	0	10	10	50	0	0	0	0	Common Ragweed plant response rating (0 to 100 scale) (common ragweed [3]; 125 g ai/ha): 0; Italian Ryegrass plant response rating (0 to 100 scale) (Italian ryegrass [4]; 125 g ai/ha): 0; Foxtail, Giant plant response rating (0 to 100 scale) (foxtail, giant [5]; 125 g ai/ha): 0; Pigweed plant response rating (0 to 100 scale) (pigweed [6]; 125 g ai/ha): 20; Barnyardgrass plant response rating (barnyardgrass [7]; [17]): 0; Kochia plant response rating (kochia [8]; [15]): 20; Common Ragweed plant response rating (common ragweed [9]; [17]): 0; Italian Ryegrass plant response rating (Italian ryegrass [10]; [15]): 0; Foxtail, Giant plant response rating (foxtail, giant [11]; [17]): 0; Pigweed plant response rating (pigweed [12]; [15]): 40; Wheat plant response rating (wheat; [15]): 0; Corn plant response rating (corn; [17]): 0; Blackgrass plant response rating (blackgrass; [17]): 0; Galium plant response rating (galium; [15]): 20
CCc1cc(C(=O)NC2CC2)nn1Cc1cc(C(F)(F)F)no1 [Compound 124]		100		40	20	100	70	90	30	30	90	100	0	40	60	80	20	20	30	10	Barnyardgrass plant response rating (barnyardgrass [1]; [18]): 0; Kochia plant response rating (kochia [2]; [18]): 20; Kochia plant response rating (kochia [2]; [14]): 90; Common Ragweed plant response rating (common ragweed [3]; [18]): 10; Italian Ryegrass plant response rating (Italian ryegrass [4]; [18]): 0; Foxtail, Giant plant response rating (foxtail, giant [5]; [18]): 20; Pigweed plant response rating (pigweed [6]; [18]): 20; Pigweed plant response rating (pigweed [6]; [14]): 100; Barnyardgrass plant response rating (barnyardgrass [7]; [17]): 0; Kochia plant response rating (kochia [8]; [17]): 50; Common Ragweed plant response rating (common ragweed [9]; [17]): 20; Italian Ryegrass plant response rating (Italian ryegrass [10]; [17]): 10; Foxtail, Giant plant response rating (foxtail, giant [11]; [17]): 0; Pigweed plant response rating (pigweed [12]; [17]): 30; Wheat plant response rating (wheat; [17]): 0; Corn plant response rating (corn; [17]): 10; Blackgrass plant response rating (blackgrass; [17]): 10; Galium plant response rating (galium; [17]): 10

From patent US20150105252A1, “SUBSTITUTED PYRAZOLES AS HERBICIDES” (E I DU PONT DE NEMOURS AND COMPANY, priority 2013, published 2015)
